Laboratory results published in PubChem BioAssay AID720614 (Broad Institute, 2013).
Records with an inconclusive call do not appear. Calls of active or inactive are those of the source. The rule behind the calls is not given here.

Tests used:
[1] = caspase 3/7 activation in SNB19 cells, mechanism study for HRAS target identification, cell-based, luminescence, several timepoints, dry powder (AID 720614); conditions: SNB19 (HRAS) caspase 3/7 apoptosis luminescence, multiple timepoints; for caspase 3/7 activation: at 35 µM (top of the series); for max activity: measured here: timepoint 3 max caspase activation, stronger effect = higher value
[2] = tested on: SNB19 (HRAS) caspase 3/7 apoptosis luminescence, multiple timepoints; test: as above

SMILES | caspase 3/7 activation [1] | max activity ([1]; at 16 µM) [%] | other results
CCC(=O)N(c1ccc(OC)c(Cl)c1)C(C(=O)NCCc1ccccc1)c1cccs1 (stereo unspecified) | -10.3% (inactive) | 18.7 | 
CO[C@H]1C[C@@H]2CC[C@@H](C)[C@@](O)(O2)C(=O)C(=O)N2CCCC[C@H]2C(=O)O[C@H]([C@H](C)C[C@@H]2CC[C@@H](O)[C@H](OC)C2)CC(=O)[C@H](C)/C=C(\C)[C@@H](O)[C@@H](OC)C(=O)[C@H](C)C[C@H](C)/C=C/C=C/C=C/1C | 2.8% (inactive) |  | AC40 ([2]; measured here: timepoint 2 caspase activation): > 35 µM; max activity ([1]; at 0.008 µM): 32%
Cc1onc(C(=O)N2CCN(C(c3ccc(Cl)cc3)c3ccc(OCCOCCOCCNC(=O)OC(C)(C)C)cc3)CC2)c1[N+](=O)[O-] (stereo unspecified) | 12.2% (inactive) |  | max activity ([1]; at 0.26 µM): 25.3%
CC(C)(C)OC(=O)NCCOCCOCCOc1ccc(N(C(=O)CCl)C(C(=O)NCCc2ccccc2)c2cccs2)cc1Cl (stereo unspecified) |  |  | AC40 [2]: > 35 µM (inactive); max activity ([1]; at 0.5 µM): 18.7%
Cc1onc(C(=O)N2CCN(C(c3ccc(Cl)cc3)c3ccc(Cl)cc3)CC2)c1[N+](=O)[O-] | 12.2% (inactive) | -17.3 | 
